The source of these data is PMC8950995, “Identification and Functional Analysis of Glutathione S-Transferases from Sitophilus zeamais in Olfactory Organ” (Insects, 2022).

For this assay, the target named is T1, SzeaGSTd1 (Sitophilus zeamais, UniProt A0A8F0D7V2).
T1 sequence (A0A8F0D7V2 22-247): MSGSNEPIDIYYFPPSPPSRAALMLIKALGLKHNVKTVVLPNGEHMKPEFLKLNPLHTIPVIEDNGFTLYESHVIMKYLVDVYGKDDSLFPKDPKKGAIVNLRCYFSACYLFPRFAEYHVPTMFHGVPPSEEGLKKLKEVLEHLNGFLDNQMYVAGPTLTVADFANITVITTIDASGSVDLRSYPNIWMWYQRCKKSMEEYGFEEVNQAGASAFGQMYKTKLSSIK
Briefly: GSH conjugation, absorbance at […] nm, Michaelis-Menten. In kind it is biochemical. The conditions noted are these: 1 mM GSH, 100 mM phosphate pH 7.2.

SMILES strings stand for the structures.

As a reminder, the Km is the concentration of substrate that gives half-maximal velocity. As for `O=[N+]([O-])c1ccc(Cl)c([N+](=O)[O-])c1` [CDNB, 1-chloro-2,4-dinitrobenzene], the Km worked out at 420 ± 40 µM.
